Test results published in PubChem BioAssay AID330 (DTP/NCI, 2004).
Where “and” joins values, the source holds several entries; their conditions need not be identical. Equal entries are not always repeated. Inconclusive results and toxic doses are left out.

System: P388 leukemia ip, CD2F1 mice, survival T/C
Test: NCI In Vivo Anticancer Drug Screen. Data for tumor model P388 Leukemia (intraperitoneal) in CD2F1 (CDF1) mice
Conditions: endpoint: median survival time, higher = longer survival
Summary of the method: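 Mice carrying the transplanted tumor received test compound or vehicle. Survival was recorded in each group, and the value is the treated-group measurement divided by that of the vehicle-treated control group.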

[1] = dose: 100.0 mg/kg/injection, schedule: Q01DX005 (ip), vehicle: saline with Tween-80
[2] = dose: 50.0 mg/kg/injection, schedule: Q01DX009 (ip), vehicle: saline with Tween-80
[3] = dose: 100.0 mg/kg/injection, schedule: Q01DX009 (ip), vehicle: saline with Tween-80
[4] = dose: 200.0 mg/kg/injection, schedule: Q01DX009 (ip), vehicle: saline with Tween-80
[5] = dose: 50.0 mg/kg/injection, schedule: Q01DX009 (ip), vehicle: saline sonified
[6] = dose: 100.0 mg/kg/injection, schedule: Q01DX009 (ip), vehicle: saline sonified
[7] = dose: 60.0 mg/kg/injection, schedule: Q01DX005 (ip), vehicle: saline with Tween-80
[8] = dose: 100.0 mg/kg/injection, schedule: Q01DX001 (ip), vehicle: saline with Tween-80
[9] = dose: 50.0 mg/kg/injection, schedule: Q01DX009 (ip), vehicle: Klucel (hydroxypropylcellulose) (HPC)
[10] = dose: 200.0 mg/kg/injection, schedule: Q01DX009 (ip), vehicle: Klucel (hydroxypropylcellulose) (HPC)
[11] = dose: 50.0 mg/kg/injection, schedule: Q01DX005 (ip), vehicle: Klucel (hydroxypropylcellulose) (HPC)
[12] = dose: 100.0 mg/kg/injection, schedule: Q01DX005 (ip), vehicle: Klucel (hydroxypropylcellulose) (HPC)
[13] = dose: 200.0 mg/kg/injection, schedule: Q01DX005 (ip), vehicle: Klucel (hydroxypropylcellulose) (HPC)
[14] = dose: 120.0 mg/kg/injection, schedule: Q01DX005 (ip), vehicle: saline with Tween-80
[15] = dose: 240.0 mg/kg/injection, schedule: Q01DX005 (ip), vehicle: saline with Tween-80

CC1(C)CC(=O)[C@H]2SCC(=O)CC21 (stereo partly drawn)
T/C (dose: 50.0 mg/kg/injection, schedule: Q01DX005 (ip), vehicle: saline with Tween-80): 86 % of control
T/C [1]: 99 % of control

Cc1ccc(S(=O)(=O)NC(CC(N)=O)C(=O)O)cc1 (stereo not drawn)
T/C (dose: 25.0 mg/kg/injection, schedule: Q01DX009 (ip), vehicle: other): 101 % of control
T/C (dose: 50.0 mg/kg/injection, schedule: Q01DX009 (ip), vehicle: other): 100 % of control
T/C (dose: 100.0 mg/kg/injection, schedule: Q01DX009 (ip), vehicle: other): 101 % of control
T/C (dose: 200.0 mg/kg/injection, schedule: Q01DX009 (ip), vehicle: other): 100 % of control
T/C (dose: 400.0 mg/kg/injection, schedule: Q01DX009 (ip), vehicle: other): 98 % of control

O=C1/C(=C/c2ccccc2[N+](=O)[O-])Cc2ccccc21
T/C [2]: 103 % of control
T/C [3]: 94 % of control
T/C [4]: 103 % of control
T/C (dose: 400.0 mg/kg/injection, schedule: Q01DX009 (ip), vehicle: saline with Tween-80): 97 % of control

Cc1csc(C)[n+]1C
T/C (dose: 25.0 mg/kg/injection, schedule: Q01DX009 (ip), vehicle: saline sonified): 100 % of control
T/C [5]: 100 % of control
T/C [6]: 90 % of control

CN1Cc2c(cc(CN3CCCCC3)n2C)C(c2ccc(Br)cc2)C1 (stereo not drawn)
T/C (dose: 15.0 mg/kg/injection, schedule: Q01DX005 (ip), vehicle: saline with Tween-80): 100 % of control
T/C (dose: 30.0 mg/kg/injection, schedule: Q01DX005 (ip), vehicle: saline with Tween-80): 100 % of control
T/C [7]: 101 % of control

O=C1N[C@@H](Cc2ccccc2)C(=O)N2CSC[C@H]12
T/C (dose: 100.0 mg/kg/injection, schedule: Q01DX001 (ip), vehicle: Klucel (hydroxypropylcellulose) (HPC)): 99 % of control
T/C (dose: 200.0 mg/kg/injection, schedule: Q01DX001 (ip), vehicle: Klucel (hydroxypropylcellulose) (HPC)): 102 % of control
T/C (dose: 400.0 mg/kg/injection, schedule: Q01DX001 (ip), vehicle: Klucel (hydroxypropylcellulose) (HPC)): 102 % of control

O=C1CSC(c2ccccc2O)N1c1ccc(N2C(=O)CSC2c2ccccc2O)cc1 (stereo not drawn)
T/C [8]: 90 % of control
T/C (dose: 200.0 mg/kg/injection, schedule: Q01DX001 (ip), vehicle: saline with Tween-80): 87 % of control
T/C (dose: 400.0 mg/kg/injection, schedule: Q01DX001 (ip), vehicle: saline with Tween-80): 87 % of control

OC(CC1CC2(CCN1)OCCO2)c1ccccc1 (stereo not drawn)
T/C (dose: 12.5 mg/kg/injection, schedule: Q01DX005 (ip), vehicle: saline): 105 % of control
T/C (dose: 25.0 mg/kg/injection, schedule: Q01DX005 (ip), vehicle: saline): 105 % of control
T/C (dose: 50.0 mg/kg/injection, schedule: Q01DX005 (ip), vehicle: saline): 108 % of control

CCOC(=O)C1CC(=O)C1C(=O)OCC (stereo not drawn)
T/C (dose: 12.5 mg/kg/injection, schedule: Q01DX009 (ip), vehicle: saline with Tween-80): 104 % of control
T/C (dose: 25.0 mg/kg/injection, schedule: Q01DX009 (ip), vehicle: saline with Tween-80): 103 % of control
T/C [2]: 100 % of control
T/C [3]: 100 % of control
T/C [4]: 101 % of control

CC1CC(C)NC(N=S(=O)(O)c2ccc(N)cc2)[N-]1.[Ag+] (stereo not drawn)
T/C [9]: 106 % of control
T/C (dose: 100.0 mg/kg/injection, schedule: Q01DX009 (ip), vehicle: Klucel (hydroxypropylcellulose) (HPC)): 100 % of control
T/C [10]: 94 % of control

Clc1ccc(CSc2nnc3c(n2)[nH]c2ccccc23)cc1
T/C [11]: 100 % of control
T/C [12]: 107 % of control
T/C [13]: 98 % of control

NC(=O)NC(C/[N+]([O-])=N/O)C(=O)O (stereo not drawn)
T/C (dose: 12.5 mg/kg/injection, schedule: Q01DX009 (ip), vehicle: water): 100 % of control
T/C (dose: 25.0 mg/kg/injection, schedule: Q01DX009 (ip), vehicle: water): 96 % of control
T/C (dose: 50.0 mg/kg/injection, schedule: Q01DX009 (ip), vehicle: water): 98 % of control
T/C (dose: 100.0 mg/kg/injection, schedule: Q01DX009 (ip), vehicle: water): 98 % of control

CCCCCCCCCSc1nc2ccc(N=Cc3ccccc3O)cc2s1
T/C (dose: 12.5 mg/kg/injection, schedule: Q01DX009 (ip), vehicle: Klucel (hydroxypropylcellulose) (HPC)): 100 % of control
T/C (dose: 25.0 mg/kg/injection, schedule: Q01DX009 (ip), vehicle: Klucel (hydroxypropylcellulose) (HPC)): 100 % of control
T/C [9]: 91 % of control and 92 % of control
T/C [10]: 90 % of control

Cn1c(=O)[nH]c(=O)c2nc(-c3ccccc3)cnc21
T/C (dose: 100.0 mg/kg/injection, schedule: Q04DX002 (ip), vehicle: Klucel (hydroxypropylcellulose) (HPC)): 105 % of control
T/C (dose: 400.0 mg/kg/injection, schedule: Q04DX002 (ip), vehicle: Klucel (hydroxypropylcellulose) (HPC)): 86 % of control

N#CCSc1nc(N)nc2nc[nH]c12
T/C [5]: 95 % of control
T/C (dose: 50.0 mg/kg/injection, schedule: Q04DX003 (ip), vehicle: saline with Tween-80): 95 % of control
T/C [6]: 100 % of control
T/C (dose: 100.0 mg/kg/injection, schedule: Q04DX003 (ip), vehicle: saline with Tween-80): 100 % of control
T/C (dose: 200.0 mg/kg/injection, schedule: Q01DX009 (ip), vehicle: saline sonified): 95 % of control
T/C (dose: 200.0 mg/kg/injection, schedule: Q04DX003 (ip), vehicle: saline with Tween-80): 95 % of control

CC1(C)O[Te]2(OC1(C)C)OC(C)(C)C(C)(C)O2
T/C (dose: 3.12 mg/kg/injection, schedule: Q01DX001 (ip), vehicle: saline with Tween-80): 100 % of control
T/C (dose: 6.25 mg/kg/injection, schedule: Q01DX001 (ip), vehicle: saline with Tween-80): 105 % of control
T/C [8]: 93 % of control

CCN(CC)CCOCCO
T/C (dose: 50.0 mg/kg/injection, schedule: Q01DX009 (ip), vehicle: saline): 100 % of control
T/C (dose: 100.0 mg/kg/injection, schedule: Q01DX009 (ip), vehicle: saline): 109 % of control
T/C (dose: 200.0 mg/kg/injection, schedule: Q01DX009 (ip), vehicle: saline): 100 % of control

CC1(C)C=Cc2c(O)c(C(=O)/C=C/c3ccccc3)c3c(c2O1)C=CC(C)(C)O3
T/C (dose: 5.25 mg/kg/injection, schedule: Q01DX005 (ip), vehicle: Klucel (hydroxypropylcellulose) (HPC)): 100 % of control
T/C (dose: 10.5 mg/kg/injection, schedule: Q01DX005 (ip), vehicle: Klucel (hydroxypropylcellulose) (HPC)): 95 % of control
T/C (dose: 21.0 mg/kg/injection, schedule: Q01DX005 (ip), vehicle: Klucel (hydroxypropylcellulose) (HPC)): 97 % of control
T/C (dose: 42.0 mg/kg/injection, schedule: Q01DX005 (ip), vehicle: Klucel (hydroxypropylcellulose) (HPC)): 86 % of control

O=c1cc(O)nc2nc(-c3ccccc3)c(-c3ccccc3)nn12
T/C [11]: 101 % of control
T/C [12]: 93 % of control
T/C [13]: 93 % of control

O=C(Nc1ccccc1)c1c(O)[nH]c(=O)[nH]c1=O
T/C [1]: 163 % of control and 207 % of control
T/C (dose: 200.0 mg/kg/injection, schedule: Q01DX005 (ip), vehicle: saline with Tween-80): 204 % of control

CCOC(=O)C(=O)Nc1sc(C)c(C)c1C#N
T/C (dose: 50.0 mg/kg/injection, schedule: Q01DX009 (ip), vehicle: saline + alcohol): 90 % of control
T/C (dose: 100.0 mg/kg/injection, schedule: Q01DX009 (ip), vehicle: saline + alcohol): 98 % of control
T/C (dose: 200.0 mg/kg/injection, schedule: Q01DX009 (ip), vehicle: saline + alcohol): 105 % of control

CN(C)CCCNc1nnc(NCCCN(C)C)c2cc3ccccc3cc12
T/C (dose: 7.5 mg/kg/injection, schedule: Q01DX005 (ip), vehicle: saline): 98 % of control
T/C (dose: 15.0 mg/kg/injection, schedule: Q01DX005 (ip), vehicle: saline): 94 % of control
T/C (dose: 30.0 mg/kg/injection, schedule: Q01DX005 (ip), vehicle: saline): 110 % of control

CCCCCCCCc1c(C)nc(N)[nH]c1=O
T/C [7]: 109 % of control
T/C [14]: 94 % of control
T/C [15]: 88 % of control

OCC1OC(n2ncc3nccnc32)C(O)C1O (stereo not drawn)
T/C (dose: 32.0 mg/kg/injection, schedule: Q01DX002 (ip), vehicle: saline with Tween-80): 98 % of control and 114 % of control
T/C (dose: 64.0 mg/kg/injection, schedule: Q01DX002 (ip), vehicle: saline with Tween-80): 98 % of control and 109 % of control
T/C (dose: 128.0 mg/kg/injection, schedule: Q01DX002 (ip), vehicle: saline with Tween-80): 112 % of control and 114 % of control

NC(CSC1c2ccccc2-c2ccccc21)C(=O)O (stereo not drawn)
T/C [7]: 90 % of control
T/C [14]: 98 % of control
T/C [15]: 92 % of control
